The text below walks through data of patent US10004701B2, “Methods and compositions for treating infection” (UNIVERSITY OF ROCHESTER, priority 2012, dated 2018).

SMILES strings stand for the structures. Structures can show the parent of a compound that is named as a salt. Where two headings read alike, the source gives them in different places.

Common to all, as to assay: AK assay 384-well format, Prestwick library screening
In one test the test system is K. pneumoniae. In kind it is cell-based, Klebsiella pneumoniae. The note with it: 50 μM final drug concentration; for fold induction at 50 µM: Klebsiella pneumoniae, 3 h.
Another test concerns E. coli. In kind it is cell-based, Escherichia coli. The note with it: 50 μM final drug concentration; for fold induction at 50 µM: Escherichia coli, 3 h.
Test [1] relates to S. aureus strain USA300-0114. Format: cell-based, Staphylococcus aureus. The note with it: 50 μM final drug concentration; for fold induction at 50 µM: Staphylococcus aureus, USA300, 3 h.
The subject of the next test is E. cloacae. Format: cell-based, Enterobacter cloacae. The note with it: 50 μM final drug concentration; for fold induction at 50 µM: Enterobacter cloacae, 3 h.
Test [2] has as its system A. baumannii strain 98-37-09. Format: cell-based, Acinetobacter baumannii. The note with it: 50 μM final drug concentration; for fold induction at 50 µM: Acinetobacter baumannii, 983709, 3 h.
For a further test, the system named is P. aeruginosa. Format: cell-based, Pseudomonas aeruginosa. The note with it: 50 μM final drug concentration; for fold induction at 50 µM: Pseudomonas aeruginosa, 3 h.
The subject of another test is E. faecium. In kind it is cell-based, Enterococcus faecium. The note with it: 50 μM final drug concentration; for fold induction at 50 µM: Enterococcus faecium, 3 h.
Where [3] appears, read: cutoff for positive-scoring molecules 3-fold increase, read-out: AK-based Prestwick Library Screening Results, K. pneumoniae (fold increase in extracellular AK activity).
Setting [4] is: cutoff for positive-scoring molecules 3-fold increase, read-out: AK-based Prestwick Library Screening Results, E. coli (fold increase in extracellular AK activity).
Setting [5] is: cutoff for positive-scoring molecules 3-fold increase, read-out: AK-based Prestwick Library Screening Results, S. aureus (fold increase in extracellular AK activity).
[6] abbreviates: cutoff for positive-scoring molecules 3-fold increase, read-out: AK-based Prestwick Library Screening Results, E. cloacae (fold increase in extracellular AK activity).
Where [7] appears, read: cutoff for positive-scoring molecules 3-fold increase, read-out: AK-based Prestwick Library Screening Results, A. baumannii (fold increase in extracellular AK activity).
[8] abbreviates: cutoff for positive-scoring molecules 3-fold increase, read-out: AK-based Prestwick Library Screening Results, P. aeruginosa (fold increase in extracellular AK activity).
Setting [9] is: cutoff for positive-scoring molecules 3-fold increase, read-out: AK-based Prestwick Library Screening Results, E. faecium (fold increase in extracellular AK activity).
The mark [10] stands for this setting: planktonic, cutoff for positive-scoring molecules 3-fold increase.

With `O=C(O)c1cc(=O)c2c(OCC(O)COc3cccc4oc(C(=O)O)cc(=O)c34)cccc2o1` [Cromolyn disodium salt], the fold induction at 50 µM with K. pneumoniae (planktonic, cutoff for positive-scoring molecules 3-fold increase, read-out: AK-based Prestwick Library Screening Results, K. pneumoniae (fold increase in extracellular AK activity)) turned out to be 0.7; in the test on E. coli (planktonic, cutoff for positive-scoring molecules 3-fold increase, read-out: AK-based Prestwick Library Screening Results, E. coli (fold increase in extracellular AK activity)), 0.7; in test [1] (planktonic, cutoff for positive-scoring molecules 3-fold increase, read-out: AK-based Prestwick Library Screening Results, S. aureus (fold increase in extracellular AK activity)), 0.7; in the test on E. cloacae (planktonic, cutoff for positive-scoring molecules 3-fold increase, read-out: AK-based Prestwick Library Screening Results, E. cloacae (fold increase in extracellular AK activity)), 1; in test [2] (planktonic, cutoff for positive-scoring molecules 3-fold increase, read-out: AK-based Prestwick Library Screening Results, A. baumannii (fold increase in extracellular AK activity)), 0.9; in the test on P. aeruginosa (planktonic, cutoff for positive-scoring molecules 3-fold increase, read-out: AK-based Prestwick Library Screening Results, P. aeruginosa (fold increase in extracellular AK activity)), 0.8. The fold induction at 50 µM with E. faecium (planktonic, cutoff for positive-scoring molecules 3-fold increase, read-out: AK-based Prestwick Library Screening Results, E. faecium (fold increase in extracellular AK activity)) was 0.9.

Turning to `C[C@H]1C(=O)O[C@@H]2CCN3CC=C(COC(=O)[C@](C)(O)[C@]1(C)O)[C@H]23` [Monocrotaline], the fold induction at 50 µM with K. pneumoniae (planktonic, […], read-out: AK-based Prestwick Library Screening Results, K. pneumoniae (fold increase in extracellular AK activity)) worked out at 1; with E. coli (planktonic, […], read-out: AK-based Prestwick Library Screening Results, E. coli (fold increase in extracellular AK activity)), 1.3; in test [1] (planktonic, […], read-out: AK-based Prestwick Library Screening Results, S. aureus (fold increase in extracellular AK activity)) it was 1; in the test on E. cloacae (planktonic, […], read-out: AK-based Prestwick Library Screening Results, E. cloacae (fold increase in extracellular AK activity)) it was 1.3; in test [2] (planktonic, […], read-out: AK-based Prestwick Library Screening Results, A. baumannii (fold increase in extracellular AK activity)), 1.2; in the test on P. aeruginosa (planktonic, […], read-out: AK-based Prestwick Library Screening Results, P. aeruginosa (fold increase in extracellular AK activity)) it was 1.2. Also, in the test on E. faecium (planktonic, […], read-out: AK-based Prestwick Library Screening Results, E. faecium (fold increase in extracellular AK activity)), the fold induction at 50 µM came to 1.1.

As for `C[N+](C)(C)CCCCCCCCCC[N+](C)(C)C` [Decamethonium bromide], the fold induction at 50 µM with K. pneumoniae (setting [3]) came out at 0.5; in the test on E. coli (setting [4]), 0.5; in test [1] (setting [5]), 0.4; in the test with E. cloacae (setting [6]) it was 0.5; in test [2] (setting [7]), 0.5; in the test with P. aeruginosa (setting [8]), 0.4. Also, in the test with E. faecium (setting [9]), the fold induction at 50 µM was 0.9.

As for `COCCc1ccc(OCC(O)CNC(C)C)cc1.COCCc1ccc(OCC(O)CNC(C)C)cc1.O=C(O)C(O)C(O)C(=O)O` (racemic) [Metoprolol-(+,−) (+)-tartrate salt], the “AK-based Prestwick Library Screening Results, K. pneumoniae (fold increase in extracellular AK activity)” value in the test with K. pneumoniae (setting [10]) came out at 0.5. The “AK-based Prestwick Library Screening Results, E. coli (fold increase in extracellular AK activity)” value in the test on E. coli (setting [10]) is 0.6. Also, the “AK-based Prestwick Library Screening Results, S. aureus (fold increase in extracellular AK activity)” value in test [1] (setting [10]) came out at 0.6. Also, the “AK-based Prestwick Library Screening Results, E. cloacae (fold increase in extracellular AK activity)” value in the test with E. cloacae (setting [10]) amounted to 7.0. Also, in test [2] (setting [10]), the “AK-based Prestwick Library Screening Results, A. baumannii (fold increase in extracellular AK activity)” value worked out at 0.7. Further, in the test with P. aeruginosa (setting [10]), the “AK-based Prestwick Library Screening Results, P. aeruginosa (fold increase in extracellular AK activity)” value is recorded as 0.7. In addition, the “AK-based Prestwick Library Screening Results, E. faecium (fold increase in extracellular AK activity)” value in the test on E. faecium (setting [10]) turned out to be 0.9.

For the molecule `C(#CCN1CCCC1)CN1CCCC1.Cl.Cl` [Tremorine dihydrochloride], the “AK-based Prestwick Library Screening Results, K. pneumoniae (increase in extracellular AK activity)” value in the test on K. pneumoniae (planktonic K. pneumoniae, […]) is 0.6. The “AK-based Prestwick Library Screening Results, E. coli (increase in extracellular AK activity)” value with E. coli (planktonic E. coli, […]) is 0.7. Besides, the “AK-based Prestwick Library Screening Results, S. aureus (increase in extracellular AK activity)” value in test [1] (planktonic S. aureus, […]) worked out at 0.5. In addition, in the test with E. cloacae (planktonic E. cloacae, […]), the “AK-based Prestwick Library Screening Results, E. cloacae (increase in extracellular AK activity)” value is 0.7. The “AK-based Prestwick Library Screening Results, A. baumannii (increase in extracellular AK activity)” value in test [2] (planktonic A. baumannii, […]) is on record as 0.7. The “AK-based Prestwick Library Screening Results, P. aeruginosa (increase in extracellular AK activity)” value with P. aeruginosa (planktonic P. aeruginosa, […]) amounted to 0.6. Besides, the “AK-based Prestwick Library Screening Results, E. faecium (increase in extracellular AK activity)” value in the test on E. faecium (planktonic E. faecium, […]) turned out to be 1.0.

For the molecule `CN(C)c1nc(N(C)C)nc(N(C)C)n1` [Altretamine], the fold induction at 50 µM in the test with K. pneumoniae (setting [3]) turned out to be 1; with E. coli (setting [4]), 1.3; in test [1] (setting [5]) it was 1.1; in the test with E. cloacae (setting [6]), 1.4; in test [2] (setting [7]), 1.3; in the test with P. aeruginosa (setting [8]), 1.2. In the test on E. faecium (setting [9]), the fold induction at 50 µM was 1.

`C[C@H]1CC[C@]2(NC1)O[C@H]1C[C@H]3[C@@H]4CC[C@H]5C[C@@H](O[C@@H]6O[C@H](CO)[C@H](O[C@@H]7O[C@H](CO)[C@@H](O)[C@H](O[C@@H]8OC[C@@H](O)[C@H](O)[C@H]8O)[C@H]7O[C@@H]7O[C@H](CO)[C@@H](O)[C@H](O)[C@H]7O)[C@H](O)[C@H]6O)CC[C@]5(C)[C@H]4CC[C@]3(C)[C@H]1[C@@H]2C` [Tomatine]: the fold induction at 50 µM in the test with K. pneumoniae (384-well format, […], read-out: AK-based Prestwick Library Screening Results, K. pneumoniae (increase in extracellular AK activity)) came to 0.7; in the test on E. coli (384-well format, […], read-out: AK-based Prestwick Library Screening Results, E. coli (increase in extracellular AK activity)), 0.9; in test [1] (384-well format, […], read-out: AK-based Prestwick Library Screening Results, S. aureus (increase in extracellular AK activity)) it was 0.8; in the test with E. cloacae (384-well format, […], read-out: AK-based Prestwick Library Screening Results, E. cloacae (increase in extracellular AK activity)), 1.1; in test [2] (384-well format, […], read-out: AK-based Prestwick Library Screening Results, A. baumannii (increase in extracellular AK activity)) it was 1; with P. aeruginosa (384-well format, […], read-out: AK-based Prestwick Library Screening Results, P. aeruginosa (increase in extracellular AK activity)), 0.8. Further, in the test with E. faecium (384-well format, […], read-out: AK-based Prestwick Library Screening Results, E. faecium (increase in extracellular AK activity)), the fold induction at 50 µM came out at 1.

Consider `[H]/N=C(\N/C(=N/[H])Nc1ccc(Cl)cc1)NC(C)C` [Proguanil hydrochloride], for which the fold induction at 50 µM in the test on K. pneumoniae (planktonic K. pneumoniae, positive cutoff 3-fold increase, read-out: AK-based Prestwick library screening result, K. pneumoniae (fold increase in extracellular AK activity)) amounted to 0.7; in the test with E. coli (planktonic E. coli, positive cutoff 3-fold increase, read-out: AK-based Prestwick library screening result, E. coli (fold increase in extracellular AK activity)), 0.9; in test [1] (planktonic S. aureus, positive cutoff 3-fold increase, read-out: AK-based Prestwick library screening result, S. aureus (fold increase in extracellular AK activity)), 0.9; in the test on E. cloacae (planktonic E. cloacae, positive cutoff 3-fold increase, read-out: AK-based Prestwick library screening result, E. cloacae (fold increase in extracellular AK activity)), 1.1; in test [2] (planktonic A. baumannii, positive cutoff 3-fold increase, read-out: AK-based Prestwick library screening result, A. baumannii (fold increase in extracellular AK activity)), 0.9; with P. aeruginosa (planktonic P. aeruginosa, positive cutoff 3-fold increase, read-out: AK-based Prestwick library screening result, P. aeruginosa (fold increase in extracellular AK activity)), 0.8. Also, the fold induction at 50 µM in the test with E. faecium (planktonic E. faecium, positive cutoff 3-fold increase, read-out: AK-based Prestwick library screening result, E. faecium (fold increase in extracellular AK activity)) came to 0.8.

On to `c1ccc2c(c1)CCCC2C1=NCCN1` (stereo not drawn) [Tetrahydrozoline hydrochloride], for which the fold induction at 50 µM in the test on K. pneumoniae (setting [3]) worked out at 0.9; with E. coli (setting [4]), 1.4; in test [1] (setting [5]) it was 1.1; in the test with E. cloacae (setting [6]) it was 1.4; in test [2] (setting [7]) it was 1; in the test on P. aeruginosa (setting [8]), 1. For the same molecule, in the test with E. faecium (setting [9]), the fold induction at 50 µM came to 1.
